The values below come from PubChem BioAssay AID1963842 (Molecular Pharmacology Branch, DTP, NCI, 2024).

Several values for one entry are separate records, joined by “and”; a condition that tells them apart may be missing. Equal entries are not always repeated. Bounds are passed on as bounds.

The assay has as its system 677734-321-R-J1-PDC complex spheroid viability. The assay is described as follows: Anticancer human tumor 677734-321-R-J1-PDC patient-derived soft tissue sarcoma cell line growth inhibition [POLQ]. To be noted: for viability, T/C: stronger effect = lower value. As to the method:
Multicellular complex tumor spheroid response to Polymerase (POL) inhibitors (novobiocin, ART-558, RP6685) in combination with a variety of drugs and investigational agents in selected tumor cell lines
The POL inhibitors (novobiocin, ART-558, and RP6685) were evaluated both individually and in combination with standard of care and investigational anticancer small molecules within a complex spheroid model of solid tumors. . Complex spheroids include a stromal component modeled by human endothelial cells (HUVEC) and fibroblasts modeled by human mesenchymal stem cells (MSCs). The concentration ranges selected for each drug and investigational agent were based upon clinically achievable concentrations if the clinical Cmax of the agent was known.
Compounds. The drugs and investigational agents: novobiocin (NSC847541), ART-558 (NSC835418), RP-6685 (NSC848927), peposertib (NSC802822), ceralasertib (NSC780249), elimusertib (NSC800525), camonsertib (NSC841442), AZD-1390 (NSC803789), olaparib (NSC753686), talazoparib (NSC767125), rucaparib (NSC756644), sotorasib (NSC818433), MRTX-1133 (NSC836407), SN-38 (NSC673596), topotecan (NSC609699), epotoside (NSC141540), doxorubicin (NSC123127), gemcitabine (NSC613327), 5-fluorouracil (NSC19893), paclitaxel (NSC125973), vemurafenib (NSC761431), MSA-2 (NSC828583), SN-011 (NSC837082), adavosertib (NSC754352), prexasertib (NSC758257), carboplatin (NSC241240) and oxaliplatin (NSC266046), were obtained from the National Cancer Institute (NCI) Developmental Therapeutics Program Chemical Repository (21). The FDA-approved anticancer drug set is available from the Developmental Therapeutics Program at https://dtp.cancer.gov/organization/dscb/obtaining/. […] The stock solutions were prepared in dimethyl sulfoxide (DMSO, Sigma-Aldrich, St. Louis, MO, cat. D2650), except for the platinum compounds which were prepared in saline (Quality Biological, Gaithersburg, MD, cat. 114-055-101), at 800-fold the tested concentration and stored at -70 degrees C prior to their use. All drugs and investigational agents were tested over a range starting from a high concentration at or near the clinical Cmax and decreasing in half-log increments. If the clinical Cmax for an agent had not been determined, the highest concentration tested was 10 microM, except for SN-38, which was tested at a high concentration of 1 microM.
Cell Culture. All cells were maintained in an incubator at 37 degrees C and 5% CO2 with 95% humidity. The PDC lines were cultured according to standard operating procedures established by the NCI PDMR (https://pdmr.cancer.gov). Table 3 of the manuscript, lists the cell lines along with the number of the three cell types plated to form the mct-spheroids and media for tumor cell growth. After thawing, all PDC lines, except 997537-175-T-J1-PDC and 415267-285-R-J2-PDC, were cultured in Matrigel-coated flasks prepared with a working solution of 1X Ham's F-12 nutrient mix, without supplementation (Thermo Fisher Scientific, cat. 11765054), 100 U/mL penicillin-streptomycin (Thermo Fisher Scientific, cat. 15140122), and 2.5% Matrigel (Corning Inc., Corning, NY, cat. 354248) for the first three passages. The two PDC lines 997537-175-T-J1-PDC and 415267-285-R-J2-PDC were cultured on uncoated flasks. The 857933-349-R-J2-PDC line was cultured in 6C/Colon 1B media containing advanced DMEM/F-12 (Thermo Fisher Scientific, cat. 12634028), 10 mM HEPES (Thermo Fisher Scientific, cat. 15630080), 1X GlutaMAX supplement (Thermo Fisher Scientific, cat. 35050061), 0.1 mg/mL primocin (InvivoGen, San Diego, CA, cat. ant-pm-2), 10% defined fetal bovine serum, heat inactivated (HyClone Laboratories Inc., Logan, UT, cat. SH30070.03HI), 50% L-WRN conditioned media (ATCC, cat. CRL-3276), 1.25 mM N-Acetyl-L-cysteine (Sigma-Aldrich, cat. A9165), 10 mM nicotinamide (Sigma-Aldrich, cat. N0636), 1X B-27 supplement (Thermo Fisher Scientific, cat. 17504044), 1X N-2 supplement (Thermo Fisher Scientific, cat. […]
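Further: spheroids exposed to compounds for one week.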

Regarding `COc1cccc2c1C(=O)c1c(O)c3c(c(O)c1C2=O)CC(O)(C(=O)CO)CC3OC1CC(N)C(O)C(C)O1` (stereo not given) + COC1C(OC(N)=O)C(O)C(Oc2ccc3c(O)c(NC(=O)c4ccc(O)c(CC=C(C)C)c4)c(=O)oc3c2C)OC1(C)C, the 50% inhibitory concentration (IC50) is, setting by setting: (curve of first compound, second compound 0.0316 µM) 104 nM; (curve of first compound, second compound 0.1 µM) 138 nM; (curve of first compound, second compound 0.316 µM) 133 nM; (curve of first compound, second compound 1 µM) 148 nM; (curve of first compound, second compound 3.16 µM) 130 nM; (curve of first compound, second compound 10 µM) 139 nM. Moreover, the viability, T/C reads like this: (second compound 0.0316 µM, first compound 0.0316 µM) 84.4%; (second compound 0.0316 µM, first compound 0.1 µM) 51.5%; (second compound 0.0316 µM, first compound 0.316 µM) 7.79%; (second compound 0.0316 µM, first compound 1 µM) 3.03%; (second compound 0.0316 µM, first compound 3.16 µM) 2.77%; (second compound 0.0316 µM, first compound 10 µM) 2.45%. Further, the viability, T/C reads like this: (second compound 0.1 µM, first compound 0.0316 µM) 77.6%; (second compound 0.1 µM, first compound 0.1 µM) 66.7%; (second compound 0.1 µM, first compound 0.316 µM) 7.11%; (second compound 0.1 µM, first compound 1 µM) 0.57%; (second compound 0.1 µM, first compound 3.16 µM) 1.78%; (second compound 0.1 µM, first compound 10 µM) 3.77%. For the same molecule, the viability, T/C (second compound 0.316 µM, first compound 0.0316 µM) was 60.4%; the viability, T/C (second compound 0.316 µM, first compound 0.1 µM) is 67%; the viability, T/C (second compound 0.316 µM, first compound 0.316 µM) was 7.66%; the viability, T/C (second compound 0.316 µM, first compound 1 µM) was 0.61%; the viability, T/C (second compound 0.316 µM, first compound 3.16 µM) was 2.67%; the viability, T/C (second compound 0.316 µM, first compound 10 µM) was 3.36%. The viability, T/C is 83.5% (second compound 1 µM, first compound 0.0316 µM); 70.1% (second compound 1 µM, first compound 0.1 µM); 11.2% (second compound 1 µM, first compound 0.316 µM); 0.59% (second compound 1 µM, first compound 1 µM); 1.98% (second compound 1 µM, first compound 3.16 µM); 2.55% (second compound 1 µM, first compound 10 µM). Besides, the viability, T/C runs as follows: (second compound 3.16 µM, first compound 0.0316 µM) 74.5%; (second compound 3.16 µM, first compound 0.1 µM) 62.4%; (second compound 3.16 µM, first compound 0.316 µM) 8.7%; (second compound 3.16 µM, first compound 1 µM) 0.64%; (second compound 3.16 µM, first compound 3.16 µM) 2.76%; (second compound 3.16 µM, first compound 10 µM) 2.4%. Also, the viability, T/C (second compound 10 µM, first compound 0.0316 µM) was 68.8%; the viability, T/C (second compound 10 µM, first compound 0.1 µM) is 67.1%; the viability, T/C (second compound 10 µM, first compound 0.316 µM) is 7.17%; the viability, T/C (second compound 10 µM, first compound 1 µM) is 0.88%; the viability, T/C (second compound 10 µM, first compound 3.16 µM) was 3.28%; the viability, T/C (second compound 10 µM, first compound 10 µM) is 1.86%.
Consider `CCc1cc2c(N3CCc4c(cc(Cn5ccnc5)cc4-c4cn(C)nc4C(F)(F)F)C3=O)cc(C)nc2c(OC)n1`, for which the viability, T/C (compound 0.0316 µM) is 108% and 84.9% and 95.3%; the viability, T/C (compound 0.1 µM) is 104% and 93.7% and 115%; the viability, T/C (compound 0.316 µM) was 100% and 83.8% and 86.7%; the viability, T/C (compound 1 µM) is 85.4% and 79.7% and 96.4%; the viability, T/C (compound 3.16 µM) was 76.5% and 55.1% and 70.1%; the viability, T/C (compound 10 µM) is 56.7% and 37.7% and 41.4%. For the same molecule, the IC50 (curve of compound) is > 10000 nM and 4460 nM and 7110 nM.
`Nc1ccn(C2OC(CO)C(O)C2(F)F)c(=O)n1` (stereo not given): the viability, T/C was 34.7% and 15.9% and 21.9% (compound 0.0316 µM); 14.8% and 10.8% and 14.6% (compound 0.1 µM); 16.7% and 11.1% and 12.8% (compound 0.316 µM); 14.4% and 10% and 14.7% (compound 1 µM); 14.3% and 7.7% and 10.6% (compound 3.16 µM); 12.5% and 6.81% and 8.93% (compound 10 µM). For the same molecule, under “curve of compound”, the IC50 was less than 31.6 nM.
Turning to `CNCc1ccc(-c2[nH]c3cc(F)cc4c3c2CCNC4=O)cc1`, the viability, T/C is 105% and 107% and 106% (compound 0.0316 µM); 101% and 75.4% and 97.1% (compound 0.1 µM); 102% and 106% and 99.2% (compound 0.316 µM); 101% and 99.7% and 105% (compound 1 µM); 108% and 101% and 99% (compound 3.16 µM); 106% and 82.2% and 88.9% (compound 10 µM). The IC50 (curve of compound) was more than 10000 nM.
Turning to `O=c1[nH]cc(F)c(=O)[nH]1`, the viability, T/C was 116% and 111% and 113% (compound 0.0316 µM); 101% and 86.4% and 96.7% (compound 0.1 µM); 108% and 104% (2×) (compound 0.316 µM); 85.4% and 84.6% and 91.5% (compound 1 µM); 54.7% and 62.5% and 51.4% (compound 3.16 µM); 44.1% and 59% and 42.7% (compound 10 µM). Moreover, the IC50 (curve of compound) is 5220 nM and > 10000 nM and 3840 nM.

The IC50 is the point on the concentration scale where inhibition reaches its midpoint. As a reminder, the viability, T/C is the result in the treated group divided by that in the control group, in per cent.
